Reference: patent publication US20210395256A1, “TYROSINE KINASE INHIBITORS, COMPOSITIONS AND METHODS THERE OF” (Betta Pharmaceuticals Co., Ltd., priority 2018, published 2021)

How the values were obtained:
Ba/F3-ETV6-NTRK3 = target: T1, Ba/F3-ETV6-NTRK3 (Homo sapiens, UniProt Q16288); experiment: Ba/F3-ETV6-NTRK3 cells proliferation assay; format: cell-based; conditions: 72 h, CellTiter Glo
T1 construct: Ba/F3 cells with TPM3-NTRK1 or ETV6-NTRK3 fusion mutation gene stably overexpressed named Ba/F3-TPM3-NTRK1 and Ba/F3-ETV6-NTRK3; fused on or other part: P41212 (Transcription factor ETV6)
How it was run: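 Ba/F3 cells stably expressing TPM3-NTRK1 or ETV6-NTRK3 fusions, 2000/well, exposed 72 h to compound at 300 to 0.05 nM final (3-fold series, 0.5% DMSO). Viability by CellTiter-Glo luminescence; IC50 by four-parameter nonlinear regression.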

CYP1A2 = target: T2, CYP1A2 (Homo sapiens, UniProt P05177); experiment: Cytochrome P450 inhibition, CYP1A2; format: in vitro ADME; conditions: probe Phenacetin (40 μM); 10 μM compound, human liver microsomes, substrate Phenacetin; read-out: Inhibition percentage CYP1A2 (Phenacetin)
T2 construct: from tissue; host or cells: human liver microsomes
T2 sequence (P05177 1-516): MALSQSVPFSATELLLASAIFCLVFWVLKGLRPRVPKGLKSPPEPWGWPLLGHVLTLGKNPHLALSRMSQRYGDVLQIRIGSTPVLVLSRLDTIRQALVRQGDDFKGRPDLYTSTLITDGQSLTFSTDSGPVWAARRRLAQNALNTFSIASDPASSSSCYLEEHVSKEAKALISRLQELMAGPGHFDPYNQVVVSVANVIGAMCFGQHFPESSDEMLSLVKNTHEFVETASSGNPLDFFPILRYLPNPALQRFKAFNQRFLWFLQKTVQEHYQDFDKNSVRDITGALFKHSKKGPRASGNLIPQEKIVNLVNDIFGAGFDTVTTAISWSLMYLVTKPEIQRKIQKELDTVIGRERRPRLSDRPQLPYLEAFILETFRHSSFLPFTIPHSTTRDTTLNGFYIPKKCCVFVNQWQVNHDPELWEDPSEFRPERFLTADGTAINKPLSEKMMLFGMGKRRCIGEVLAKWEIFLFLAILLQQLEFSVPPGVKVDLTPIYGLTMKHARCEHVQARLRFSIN
Description: Example 205 Cytochrome P450 Measurements The cytochrome P450 was measured as the following procedure: 1) A master solution containing phosphate buffer, ultra-pure H2O, MgCl2 solution and human liver microsomes was made according to Table 17, and then 1 μL of 2 mM of compound solution or 1 μL of DMSO (as without inhibitor control) was added to the above master solution. The final concentration of test compounds or control compounds was 10 μM. [table] 2) For CYP1A2 inhibition, 1 μL of specific drug substrate (Phenacetin: 8 mM) was added at the final concentration of 40 μM to the above solution. 8) The mixture was pre-warmed at 37° C. for 5 min. The reaction was started by the addition of 20 μL of 10 mM NADPH solution at the final concentration of 1 mM and carried out at 37° C. 9) The reaction was stopped by addition of 300 μL of cold quench solution (methanol containing internal standards (1S, 500 nM Labetalol, 100 nM Alprazolam and 2 μM Ketoprofen) at the designated time points (Phenacetin: 20 min; Paclitaxel: 10 min; Tolbutamide: 20 min; (s)-Mephenytoin: 20 min; Midazolam: 5 min; Testosterone: 10 min). Samples were vortexed for 5 minutes and centrifuged at 3220 g for 40 minutes at 4° C. And then 100 μL of the supernatant was transferred to a new 96-well plate with 100 μL or 200 μL water (depends on the LC-MS signal response and peak shape) for LC-MS/MS analysis. All experiments were performed in duplicates.

NTRK1-G595R = NTRK1-G595R (Homo sapiens, UniProt P04629, G595R); experiment: NTRK1-G595R cell proliferation assay (Table 13); format: cell-based
Chain of NTRK1-G595R (P04629 33-796 G595R): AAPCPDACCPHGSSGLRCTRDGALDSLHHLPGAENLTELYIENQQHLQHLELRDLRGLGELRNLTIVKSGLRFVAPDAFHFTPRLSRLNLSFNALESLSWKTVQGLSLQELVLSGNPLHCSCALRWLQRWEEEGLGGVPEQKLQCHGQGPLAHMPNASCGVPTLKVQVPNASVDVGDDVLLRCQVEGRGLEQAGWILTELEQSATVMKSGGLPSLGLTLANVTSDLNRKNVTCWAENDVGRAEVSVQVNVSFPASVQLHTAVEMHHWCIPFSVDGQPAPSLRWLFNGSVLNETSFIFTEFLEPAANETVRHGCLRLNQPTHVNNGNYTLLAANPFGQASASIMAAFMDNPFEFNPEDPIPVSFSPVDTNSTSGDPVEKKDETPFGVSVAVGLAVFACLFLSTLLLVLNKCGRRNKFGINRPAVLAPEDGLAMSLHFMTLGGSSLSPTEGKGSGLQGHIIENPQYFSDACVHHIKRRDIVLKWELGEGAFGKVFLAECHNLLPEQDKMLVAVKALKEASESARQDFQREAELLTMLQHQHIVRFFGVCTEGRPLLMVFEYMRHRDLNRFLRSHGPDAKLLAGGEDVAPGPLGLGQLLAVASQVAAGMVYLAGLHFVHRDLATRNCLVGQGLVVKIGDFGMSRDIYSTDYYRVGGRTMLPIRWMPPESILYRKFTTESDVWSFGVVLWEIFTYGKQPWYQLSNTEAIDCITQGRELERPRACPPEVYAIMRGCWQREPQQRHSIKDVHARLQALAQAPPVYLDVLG

T1 sequence (Q16288 whole entry, the tested form may be a part): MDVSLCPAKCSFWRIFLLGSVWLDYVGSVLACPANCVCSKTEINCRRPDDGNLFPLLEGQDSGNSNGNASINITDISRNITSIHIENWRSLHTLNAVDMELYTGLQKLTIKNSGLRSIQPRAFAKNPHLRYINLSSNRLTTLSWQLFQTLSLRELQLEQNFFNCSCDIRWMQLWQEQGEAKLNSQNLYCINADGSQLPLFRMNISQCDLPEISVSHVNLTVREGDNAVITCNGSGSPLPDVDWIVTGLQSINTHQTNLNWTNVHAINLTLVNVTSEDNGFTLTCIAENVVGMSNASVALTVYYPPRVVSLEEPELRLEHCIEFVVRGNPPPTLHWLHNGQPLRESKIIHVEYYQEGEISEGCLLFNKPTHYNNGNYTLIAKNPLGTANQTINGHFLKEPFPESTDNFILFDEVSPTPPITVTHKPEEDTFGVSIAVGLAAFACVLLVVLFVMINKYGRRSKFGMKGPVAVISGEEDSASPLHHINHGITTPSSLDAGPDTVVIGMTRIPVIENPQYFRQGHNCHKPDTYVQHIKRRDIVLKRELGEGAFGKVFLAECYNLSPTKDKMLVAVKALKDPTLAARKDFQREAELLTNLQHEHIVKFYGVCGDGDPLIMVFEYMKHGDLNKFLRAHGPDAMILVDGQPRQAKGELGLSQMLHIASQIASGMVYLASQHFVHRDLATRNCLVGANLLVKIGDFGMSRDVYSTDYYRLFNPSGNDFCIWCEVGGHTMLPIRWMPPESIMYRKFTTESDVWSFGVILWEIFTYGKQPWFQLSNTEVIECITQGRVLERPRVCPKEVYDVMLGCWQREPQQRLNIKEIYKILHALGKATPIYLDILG

IC50 (Ba/F3-ETV6-NTRK3) | inhibition at 20 min, 10 µM (CYP1A2) | IC50 (NTRK1-G595R) | Structure (SMILES)
2.78 nM | 1.53% |  | C[C@H](O)c1nnc(-c2cnn3ccc(N4CCC[C@@H]4c4cc(F)ccc4F)nc23)[nH]1 [Compound 4, (S)-1-(5-(5-((R)-2-(2,5-difluorophenyl)pyrrolidin-1-yl)pyrazolo[1,5-a]pyrimidin-3-yl)-4H-1,2,4-triazol-3-yl)ethan-1-ol]
 | 4.38% |  | OC(c1nnc(-c2cnn3ccc(N4CCC[C@@H]4c4cc(F)ccc4F)nc23)[nH]1)C(F)(F)F (stereo partly drawn) [Compound 47, 1-(5-(5-((R)-2-(2,5-difluorophenyl)pyrrolidin-1-yl)pyrazolo[1,5-a]pyrimidin-3-yl)-4H-1,2,4-triazol-3-yl)-2,2,2-trifluoroethan-1-ol]
 | 29% |  | Cc1nnc(-c2cnn3ccc(N4CCCC4c4cc(F)ccc4F)nc23)[nH]1 (centres unmarked) [Comparative compound A, 5-[2-(2,5-Difluorophenyl)pyrrolidin-1-yl]-3-(5-methyl-1H-1,2,4-triazol-3-yl)pyrazolo[1,5-a]pyrimidine, reference compound]
5.79 nM |  |  | C[C@H](N)c1nnc(-c2cnn3ccc(N4CCC[C@@H]4c4cc(F)ccc4F)nc23)[nH]1 [Compound 11, (S)-1-(5-(5-((R)-2-(2,5-difluorophenyl)pyrrolidin-1-yl)pyrazolo[1,5-a]pyrimidin-3-yl)-4H-1,2,4-triazol-3-yl)ethan-1-amine]
5.68 nM | 8.54% | 107 nM | CC(C)(O)c1nnc(-c2cnn3ccc(N4CCC[C@@H]4c4cc(F)ccc4F)nc23)[nH]1 [Compound 7, (R)-2-(5-(5-(2-(2,5-difluorophenyl)pyrrolidin-1-yl)pyrazolo[1,5-a]pyrimidin-3-yl)-4H-1,2,4-triazol-3-yl)propan-2-ol]
